The results in this text go back to PubChem BioAssay (NCI).

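The compound was tested at five concentrations on cells cultured in 96-well plates, with a 48-hour exposure period. GI50 marks 50% less growth. At the TGI there is no net growth.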 A value given as a limit tells only on which side of the number the result lay.

Holding throughout (assay): NCI anticancer screen, dose series, 48 h
The test system of test [1] is NCI-H23 lung.
In test [2] the test system is CAKI-1 renal.
In test [3] the test system is SNB-19 CNS.
In test [4] the test system is EKVX NSCLC.
Test [5] concerns SF-295 CNS.
In test [6] the test system is RPMI-8226 leukemia.
For test [7], the system named is ACHN renal.
Test [8] concerns A549 NSCLC.
In test [9] the test system is 786-0 renal.

In the case of `Cc1cc(O)cc(C)c1/C=C/c1cncc(C(=O)N(C)C)c1`, the GI50 in test [1] was over 25 µM; in test [2], over 25 µM; in test [3], over 25 µM; in test [4], over 25 µM; in test [5], over 14.8 µM; in [6], over 25 µM. Moreover, the GI50 in [7], in test [8] and in [9] was over 25 µM throughout. Further, the TGI in [1], in [2], in test [3], in test [4], in test [5] and in [6] was over 25 µM each time. The TGI in [7], in test [8] and in test [9] was over 25 µM each time.

For `CCCCc1cc(O)ccc1O`, the GI50 is 67.1 µM in test [1]; 33 µM in [2]; 78.5 µM in test [3]; 41.9 µM in test [4]; 42.7 µM in [5]; 3.13 µM in test [6]. The GI50 in test [7] is 15.6 µM; in test [8], 89.2 µM; in test [9] it was 12.2 µM. The TGI in test [1] is over 100 µM; in test [2] it was over 100 µM; in [3], over 100 µM; in [4], over 100 µM; in test [5], over 100 µM; in test [6], 26.6 µM. Further, the values for the TGI in [7], in test [8] and in test [9] were 28.9 µM, over 100 µM and over 100 µM, respectively.

For the compound `O=[N+]([O-])/C=C\c1ccc2c(c1)OCO2`, the GI50 in test [1] was 2.52 µM; in test [2] it was 1.69 µM; in test [3] it was 13.1 µM; in test [4], 14.4 µM; in test [5] it was 11.5 µM; in [6] it was 1.77 µM. Besides, the GI50 in test [7] was 4.21 µM; in test [8], 2.34 µM; in test [9] it was 1.84 µM. The TGI in test [1] was determined as 7.38 µM; in test [2], 7.36 µM; in test [3], 30.8 µM; in test [4], 34.9 µM; in test [5], 26.5 µM; in test [6] it was 5.07 µM. Further, the TGI in test [7] was 16.2 µM; in test [8], 5.23 µM; in test [9] it was 3.52 µM.

Take `ClCCn1cnc2c(SCc3ccccc3)ncnc21`: the GI50 in [1] is 29.2 µM; in test [2] it was 8.86 µM; in test [3] it was 2.61 µM; in test [4], 18.3 µM; in [5], 3.12 µM; in [6], 0.73 µM. Moreover, the results for the GI50 in [7], in test [8] and in [9] were 4.99 µM, 1.22 µM and 1.05 µM, respectively. Moreover, the TGI in test [1] is over 100 µM; in test [2], over 100 µM; in [3], over 100 µM; in test [4], over 100 µM; in test [5], over 100 µM; in test [6], 35.5 µM. Besides, the TGI in test [7] is over 100 µM; in [8], 76.5 µM; in [9], 19.7 µM.

For the compound `O=C(O)C(Cc1ccc(O)c([N+](=O)[O-])c1)N1C(=O)c2ccccc2C1=O` (stereo not drawn), the TGI in test [1], in test [2], in [3], in test [4], in test [5] and in test [6] was over 100 µM in each case. Besides, the TGI in test [7], in test [8] and in test [9] was over 100 µM in each case.

In the case of `CN(C)CN1C(=O)S/C(=C2\C(=O)N(CN(C)C)c3ccccc32)C1=O`, the TGI in test [1] was 49.2 µM; in test [2], 97.9 µM; in test [3] it was over 100 µM; in test [4] it was over 100 µM; in test [5] it was over 100 µM; in [6] it was 54.8 µM. The TGI in test [7], in [8] and in test [9] was over 100 µM each time.

In the case of `O=C(O)c1nnsc1COCc1ccccc1`, the TGI in test [1], in test [2], in test [3], in test [4], in test [5] and in test [6] was over 100 µM in each case. The TGI in test [7], in test [8] and in test [9] was over 100 µM in each case.

Consider `CC/C=C\C[C@H](O)C/C=C1/C(=O)C=C[C@@H]1C/C=C\CCCC(N)=O`, for which the GI50 in [1] is 2.13 µM; in [2] it was 1.62 µM; in [3], 7.43 µM; in test [4] it was 4.29 µM; in test [5] it was 2.52 µM; in [6], 1.14 µM. The values for the GI50 in test [7], in test [8] and in [9] were 1.64 µM, 2.49 µM and 1.94 µM, respectively. Also, the TGI is 5.27 µM in test [1]; 3.92 µM in test [2]; 21.6 µM in [3]; 15.7 µM in [4]; 6.23 µM in test [5]; 5.24 µM in test [6]. The TGI came out at 3.35 µM in test [7], 6.01 µM in test [8] and 3.62 µM in test [9].

As to `O=C(N/N=C/c1ccc(F)cc1)c1[nH]c2ccc(I)cc2c1-c1ccccc1`, the GI50 in test [1] was 0.551 µM; in test [2] it was 0.399 µM; in test [3], 2.31 µM; in test [4], 0.47 µM; in test [5], 0.27 µM; in [6], 0.191 µM. Further, the GI50 in test [7] was 0.719 µM; in test [8], 0.76 µM; in [9], 0.475 µM. Further, the TGI in [1] is over 25.1 µM; in test [2], 56.1 µM; in test [3], over 82.1 µM; in [4], over 26.9 µM; in [5] it was 1.5 µM; in test [6] it was 0.639 µM. For the same compound, the TGI was over 100 µM in test [7], over 54.5 µM in [8] and 10.7 µM in test [9].

`NC(N)=NNC(=O)C(=O)O`: the TGI in [1], in test [2], in test [3], in [4], in test [5] and in test [6] was over 100 µM each time. In addition, the TGI in [7], in test [8] and in [9] was over 100 µM each time.

Take `c1ccc2c(NCCCCCCCCNc3c4ccccc4nc4ccccc34)c3ccccc3nc2c1`: the TGI turned out to be 1.73 µM in test [1]; 2.18 µM in test [2]; 3.43 µM in test [3]; 2.8 µM in test [4]; 2.21 µM in [5]; 1.82 µM in test [7]. For the same compound, the TGI in test [9] amounted to 1.95 µM.

As to `NC(N)=N/N=C/c1c(-c2cc(Cl)sc2Cl)nc2n1CCS2`, the GI50 is 8.77 µM in test [1]; 12.8 µM in test [2]; 9.21 µM in test [4]; 8.75 µM in test [5]; 9.34 µM in test [6]; 8.31 µM in test [7]. In addition, the GI50 in test [8] is 9.57 µM; in test [9], 8.12 µM. Further, the TGI in test [1] was 16.7 µM; in test [2], 23.2 µM; in [4] it was 18.1 µM; in test [5], 17.1 µM; in test [6] it was 19.4 µM; in test [7], 15.1 µM. Also, the results for the TGI in test [8] and in test [9] were 22 µM and 15.6 µM, respectively.

Turning to `O=C1OCC2=Nc3cccc4cccc(c34)N12`, the TGI in test [1], in test [2], in test [3], in test [4], in test [5] and in test [7] was over 100 µM throughout. The TGI in test [8] and in test [9] was over 100 µM throughout.

For the compound `Cc1ccc(N2C(=O)C(Cl)=C(Nc3cccc(O)c3)C2=O)cc1Cl`, the GI50 in test [1] is 15.2 µM; in test [2], 17 µM; in [3] it was 23.3 µM; in [5] it was 17.8 µM; in test [6] it was 3.95 µM; in test [7], 17.5 µM. Moreover, the GI50 in test [8] is 12.8 µM; in [9], 19.3 µM. The TGI in test [1] came to 30.5 µM; in [2] it was 34.6 µM; in [3], 65.5 µM; in [5] it was 36.5 µM; in [6], 28.6 µM; in test [7], 32.7 µM. Further, the TGI in test [8] is 29.7 µM; in test [9], 52 µM.

Turning to `CCCCCCCCCCCCC(SCCNC(=O)CCNC(=O)C(O)C(C)(C)COP(=O)(O)OP(=O)(O)OCC1OC(n2cnc3c(N)ncnc32)C(O)C1OP(=O)(O)O)C(=O)NCC(N)=O` (stereo not drawn), the TGI in test [1], in [3], in test [4], in test [5], in [7] and in test [8] was over 100 µM throughout. In addition, the TGI in test [9] was over 100 µM.

For the compound `CCC(=O)N1C/C(=C/c2ccc(OC)cc2)C(=O)/C(=C/c2ccc(OC)cc2)C1`, the GI50 is 2.26 µM in test [1]; 2.74 µM in test [2]; 2.93 µM in test [3]; 0.231 µM in [6]; 1.8 µM in test [7]; 1.87 µM in [9]. The TGI in test [1] was determined as 5.39 µM; in [2], 9.73 µM; in test [3], 19.3 µM; in test [6], 0.748 µM; in test [7], 3.43 µM; in test [9], 3.72 µM.

For `N#CC1C(N)=NNC1c1ccc(-c2ccc(-c3nc4ccccc4o3)cc2)o1` (stereo not drawn), the GI50 was 14.8 µM in test [2]; over 100 µM in test [3]; 14.6 µM in test [4]; 66.4 µM in [5]; 28.6 µM in [6]; 14.6 µM in test [7]. Also, the GI50 in test [8] is 32.3 µM; in [9], over 100 µM. For the same compound, the TGI in [2] was 44.2 µM; in test [3] it was over 100 µM; in test [4], 81.2 µM; in [5] it was over 100 µM; in test [6], over 100 µM; in test [7] it was 51.7 µM. The TGI in test [8] and in [9] was over 100 µM in each case.

Take `CN(C)CCNC(=O)c1cccc(CO)c1[N+](=O)[O-]`: the TGI in test [1], in [2], in [3], in test [5], in test [7] and in test [8] was over 100 µM in each case. This compound had a TGI in test [9] of over 100 µM.

In the case of `Cc1ccc(S(=O)(=O)NCCN2c3nc4ccccc4cc3Sc3cc4ccccc4nc32)cc1`, the GI50 in [1] was 13 µM; in test [2], 13.8 µM; in test [3] it was 10.5 µM; in test [4], over 77 µM; in [5], 4.04 µM; in [7], 8.42 µM. The GI50 was over 100 µM in [8] and 1.67 µM in test [9]. The TGI was over 100 µM in test [1]; over 71.7 µM in test [2]; 67.7 µM in test [3]; over 100 µM in test [4]; 18.5 µM in [5]; over 100 µM in [7]. The TGI is over 100 µM in test [8] and over 45.9 µM in test [9].

Regarding `CCOC(=O)c1c2ccc(/C=C/C(=O)OC)ccc-2c(C(=O)OCC)c1N`, the TGI in [1], in test [2], in test [3], in test [4], in [5] and in test [7] was over 100 µM throughout. Besides, the TGI in test [8] and in [9] was over 100 µM each time.

In the case of `COc1cccc2c(=O)c3c(sc12)c(NCCCN)nc1ccccc13`, the GI50 in test [1] is 1.56 µM; in test [2], 1.48 µM; in test [3], 1.61 µM; in test [4] it was 1.43 µM; in test [5], 1.77 µM; in test [6], 2.11 µM. For the same compound, the GI50 in test [7] is 1.32 µM; in [9], 1.65 µM. Also, the TGI in [1] was 2.99 µM; in test [2] it was 2.82 µM; in test [3], 3.04 µM; in [4], 2.81 µM; in test [5] it was 3.25 µM; in [6], 4.92 µM. In addition, the values for the TGI in test [7] and in test [9] were 2.59 µM and 3.14 µM, respectively.
